Results reported in US20240208934A1, “ULK1/2 INHIBITORS AND THEIR USE THEREOF” (LifeArc, priority 2021, published 2024).

What follows are compounds tested on ULK (assay: ULK radiometric assay (33P incorporation onto MBP substrate, glass fiber capture filter)). Conditions: ULK Biochemical activity; 20 uM ATP, 0.2 mg/mL MBP; averages of at least two independent experiments.
Experimental: ULK activity was measured using a radiometric assay, to measure the incorporation of radiolabelled ^33P onto MBP substrate using a glass fiber capture filter method. Reaction conditions were 0.2 mg/mL MBP, 20 uM ATP (0.25 μCi/well), 50 mM Tris HCl, pH7.5, 10 mM MgCl2, 0.1% beta-mercaptoethanol, 0.1 mM EGTA, 0.01% BSA. Ten point Half log Compound dilution series were prepared in 100% DMSO and added to the reaction to give final assay concentration of 10% DMSO. Compounds were tested in duplicate and values normalized to 10% DMSO only controls. The data were fitted to a four parameter fit equation and the IC50 values shown are averages of at least two independent experiments.

IC50	SMILES
< 200 nM	O=C1CCCCN1CCCNc1nc(Nc2cc3c(cc2Cl)CNCC3)ncc1C(F)(F)F [Example 1, 1-(3-(2-(7-Chloro-1,2,3,4-tetrahydroisoquinolin-6-ylamino)-5(trifluoromethyl)pyrimidin-4-ylamino)propyl) piperidin-2-one]
< 200 nM	O=C(CCNc1nc(Nc2cc3c(cc2Cl)CNCC3)ncc1C(F)(F)F)N[C@@H](C1CC1)C(F)(F)F [Example 2, (S)-3-(2-(7-chloro-1,2,3,4-tetrahydroisoquinolin-6-ylamino)-5-(trifluoromethyl)pyrimidin-4-ylamino)-N-(1-cyclopropyl-2,2,2-trifluoroethyl)propanamide]
< 200 nM	COc1nn(CCN(C)C)cc1Nc1ncc(C(F)(F)F)c(NCCCN2CCCCC2=O)n1 [Example 3, 1-(3-((2-((1-(2-(Dimethylamino)ethyl)-3-methoxy-1H-pyrazol-4-yl)amino)-5-(trifluoromethyl)pyrimidin-4-yl)amino)propyl) piperidin-2-one]
< 200 nM	COc1cc2c(cc1Nc1ncc(C(F)(F)F)c(NCCCN3CCCCC3=O)n1)CCNC2 [Example 4, 1-(3-((2-((7-Methoxy-1,2,3,4-tetrahydroisoquinolin-6-yl)amino)-5-(trifluoromethyl)pyrimidin-4-yl)amino)propyl)piperidin-2-one]
≥ 1000 nM	Fc1cccc(Nc2ncc(C(F)(F)F)c(NCCCN3CCCC3)n2)c1 [Example 5, N2-(3-fluorophenyl)-N4-(3-(pyrrolidin-1-yl)propyl)-5-(trifluoromethyl)pyrimidine-2,4-diamine]
200 to 1000 nM	CN1CCc2cc(Nc3ncc(C(F)(F)F)c(NCCCN4CCCC4)n3)ccc2C1 [Example 6, N2-(2-methyl-1,2,3,4-tetrahydroisoquinolin-6-yl)-N4-(3-(pyrrolidin-1-yl)propyl)-5-(trifluoromethyl)pyrimidine-2,4-diamine]
< 200 nM	CN1CCc2cc(Nc3ncc(C(F)(F)F)c(NCCCN4CCCCC4=O)n3)ccc2C1 [Example 7, 1-(3-((2-((2-Methyl-1,2,3,4-tetrahydroisoquinolin-6-yl)amino)-5-(trifluoromethyl)pyrimidin-4-yl)amino)propyl)piperidin-2-one]
< 200 nM	CN1CCC(Oc2cccc(Nc3ncc(C(F)(F)F)c(NCCCN4CCCCC4=O)n3)c2)CC1 [Example 8, 1-[3-[[2-[3-[(1-Methyl-4-piperidyl)oxy]anilino]-5-(trifluoromethyl)pyrimidin-4-yl]amino]propyl]piperidin-2-one]
< 200 nM	CN1CCc2cc(Nc3ncc(C4CC4)c(NCCCN4CCCC4=O)n3)ccc2C1 [Example 9, 1-[3-[[5-cyclopropyl-2-[(2-methyl-3,4-dihydro-1H-isoquinolin-6-yl)amino]pyrimidin-4-yl]amino]propyl]pyrrolidin-2-one]
< 200 nM	CN1CCc2ccc(Nc3ncc(C4CC4)c(NCCCN4CCCC4=O)n3)cc2C1 [Example 10, 1-(3-((5-Cyclopropyl-2-((2-methyl-1,2,3,4-tetrahydroisoquinolin-7-yl)amino)pyrimidin-4-yl)amino)propyl)pyrrolidin-2-one]
< 200 nM	CN1CCc2cc(Nc3ncc(C4CC4)c(NCCCN4CCCCC4=O)n3)ccc2C1 [Example 11, 1-(3-((5-Cyclopropyl-2-((2-methyl-1,2,3,4-tetrahydroisoquinolin-6-yl)amino)pyrimidin-4-yl)amino)propyl)piperidin-2-one]
< 200 nM	CN1CCc2ccc(Nc3ncc(C4CC4)c(NCCCN4CCCCC4=O)n3)cc2C1 [Example 12, 1-(3-((5-Cyclopropyl-2-((2-methyl-1,2,3,4-tetrahydroisoquinolin-7-yl)amino)pyrimidin-4-yl)amino)propyl)piperidin-2-one]
< 200 nM	CN(C)Cc1cccc(Nc2ncc(C3CC3)c(NCCCN3CCCCC3=O)n2)c1 [Example 13, 1-(3-(5-Cyclopropyl-2-(3-((dimethylamino)methyl)phenylamino)pyrimidin-4-ylamino)propyl) piperidin-2-one]
≥ 1000 nM	CN1CCc2cc(Nc3ncc(C4CC4)c(NCCCN4CCCC4)n3)ccc2C1 [Example 15, 5-Cyclopropyl-N2-(2-methyl-1,2,3,4-tetrahydroisoquinolin-6-yl)-N4-(3-(pyrrolidin-1-yl)propyl)pyrimidine-2,4-diamine]
< 200 nM	CN1CCC(Oc2cccc(Nc3ncc(C4CC4)c(NCCCN4CCCCC4=O)n3)c2)CC1 [Example 16, 1-(3-((5-Cyclopropyl-2-((3-((1-methylpiperidin-4-yl)oxy)phenyl)amino)pyrimidin-4-yl)amino)propyl)piperidin-2-one]
< 200 nM	CN1CCc2cc(Nc3ncc(C4CC4)c(NC4CC4)n3)ccc2C1 [Example 17, N4,5-dicyclopropyl-N2-(2-methyl-1,2,3,4-tetrahydroisoquinolin-6-yl)pyrimidine-2,4-diamine]

IC50	SMILES
< 200 nM	CN1CCc2ccc(Nc3ncc(C4CC4)c(NC4CC4)n3)cc2C1 [Example 18, N4,5-dicyclopropyl-N2-(2-methyl-1,2,3,4-tetrahydroisoquinolin-7-yl)pyrimidine-2,4-diamine]
< 200 nM	O=C1CCCCN1CCCNc1nc(Nc2ccc3c(c2)CCNC3)ncc1C(F)(F)F [Example 19, 1-[3-[[2-(1,2,3,4-Tetrahydroisoquinolin-6-ylamino)-5-(trifluoromethyl)pyrimidin-4-yl]amino]propyl]piperidin-2-one]
< 200 nM	COc1cc2c(cc1Nc1ncc(C(F)(F)F)c(NCCCN3CCCCC3=O)n1)CNCC2 [Example 20, 1-[3-[[2-[(6-Methoxy-1,2,3,4-tetrahydroisoquinolin-7-yl)amino]-5-(trifluoromethyl)pyrimidin-4-yl]amino]propyl]piperidin-2-one]
< 200 nM	CCOc1cc2c(cc1Nc1ncc(C(F)(F)F)c(NCCCN3CCCCC3=O)n1)CNCC2 [Example 21, 1-[3-[[2-[(6-Ethoxy-1,2,3,4-tetrahydroisoquinolin-7-yl)amino]-5-(trifluoromethyl)pyrimidin-4-yl]amino]propyl]piperidin-2-one]
≥ 1000 nM	COc1ccc(N2CCNCC2)cc1Nc1ncc(C(F)(F)F)c(NCCCN2CCCCC2=O)n1 [Example 22, 4-[4-methoxy-3-[[4-[3-(2-oxo-1-piperidyl)propylamino]-5-(trifluoromethyl)pyrimidin-2-yl]amino]phenyl]piperazine]
< 200 nM	Cc1cc2c(cc1Nc1ncc(C(F)(F)F)c(NCCCN3CCCCC3=O)n1)CNCC2 [Example 23, 6-methyl-7-[[4-[3-(2-oxo-1-piperidyl)propylamino]-5-(trifluoromethyl)pyrimidin-2-yl]amino]-3,4-dihydro-1H-isoquinoline]
< 200 nM	COc1cc2c(cc1Nc1ncc(C(F)(F)F)c(NCCCN3CCCCC3=O)n1)CN(C)CC2 [Example 24, 1-[3-[[2-[(6-Methoxy-2-methyl-3,4-dihydro-1H-isoquinolin-7-yl)amino]-5-(trifluoromethyl)pyrimidin-4-yl]amino]propyl]piperidin-2-one]
< 200 nM	O=C1CCCCN1CCCNc1nc(Nc2ccc3c(c2)COCC3)ncc1C(F)(F)F [Example 25, 1-[3-[[2-(Isochroman-7-ylamino)-5-(trifluoromethyl)pyrimidin-4-yl]amino]propyl]piperidin-2-one]
< 200 nM	O=C1CCCCN1CCCNc1nc(Nc2cc(CO)ccc2Cl)ncc1C(F)(F)F [Example 26, 1-[3-[[2-[2-Chloro-5-(hydroxymethyl)anilino]-5-(trifluoromethyl)pyrimidin-4-yl]amino]propyl]piperidin-2-one]
< 200 nM	COc1nn(C)cc1Nc1ncc(C(F)(F)F)c(NCCCN2CCCCC2=O)n1 [Example 27, 1-[3-[[2-[(3-Methoxy-1-methyl-pyrazol-4-yl)amino]-5-(trifluoromethyl)pyrimidin-4-yl]amino]propyl]piperidin-2-one]
< 200 nM	COc1nn(CC(C)(C)O)cc1Nc1ncc(C(F)(F)F)c(NCCCN2CCCCC2=O)n1 [Example 28]
≥ 1000 nM	COc1ccccc1Nc1ncc(C(F)(F)F)c(NCCCN2CCCCC2=O)n1 [Example 30, 1-[3-[[2-(2-Methoxyanilino)-5-(trifluoromethyl)pyrimidin-4-yl]amino]propyl]piperidin-2-one]
≥ 1000 nM	O=C1CCCCN1CCCNc1nc(Nc2cccc3c2OCC3)ncc1C(F)(F)F [Example 31, 1-[3-[[2-(2,3-Dihydrobenzofuran-7-ylamino)-5-(trifluoromethyl)pyrimidin-4-yl]amino]propyl]piperidin-2-one]
≥ 1000 nM	COc1ccc(N2CCOCC2)cc1Nc1ncc(C(F)(F)F)c(NCCCN2CCCCC2=O)n1 [Example 32, 1-[3-[[2-(2-Methoxy-5-morpholino-anilino)-5-(trifluoromethyl)pyrimidin-4-yl]amino]propyl]piperidin-2-one]
≥ 1000 nM	COc1cc2c(cc1Nc1ncc(C(F)(F)F)c(NCCCN3CCCCC3=O)n1)C(=O)NCC2 [Example 33, 6-Methoxy-7-[[4-[3-(2-oxo-1-piperidyl)propylamino]-5-(trifluoromethyl)pyrimidin-2-yl]amino]-3,4-dihydro-2H-isoquinolin-1-one]
≥ 1000 nM	COCc1ccc(Nc2ncc(C(F)(F)F)c(NCCCN3CCCCC3=O)n2)c(OC)c1 [Example 34, 1-[3-[[2-[2-Methoxy-4-(methoxymethyl)anilino]-5-(trifluoromethyl)pyrimidin-4-yl]amino]propyl]piperidin-2-one]

SMILES	IC50
CN1CCC(O)(c2ccc(Nc3ncc(C4CC4)c(NCCCN4CCCCC4=O)n3)cc2)CC1 [Example 14, 1-(3-((5-Cyclopropyl-2-((4-(4-hydroxy-1-methylpiperidin-4-yl)phenyl)amino)pyrimidin-4-yl)amino)propyl)piperidin-2-one]	< 200 nM
